Data on two compounds can be found in US7585895B2, “Therapeutic substituted cyclopentanes” (Allergan, Inc., priority 2005, dated 2009).

Assay type in all cases: in vivo
A short description of data set [1]: Dog ocular hyperemia. To be noted: Conc. 0.1 g/100 mL.
Data set [2] in a line: Dog intraocular pressure (Max. ΔIOP). The following applies: Canis lupus familiaris, Conc. 0.1 g/100 mL.
The nature of data set [3]: Monkey intraocular pressure (Max. ΔIOP). To be noted: Primates, Conc. 0.1 g/100 mL.
The nature of data set [4]: Rabbit ocular hyperemia. The following applies: Conc. 0.1 g/100 mL.

As to `CCCCCCc1ccc([C@@H]2[C@@H](C/C=C\CCCC(=O)O)[C@H](Cl)C[C@H]2O)cc1` [compound 6], in data set [1], the “DOG Max. hpyeremia” value is recorded as 0.6. Further, the change in vivo at 1000 µg/mL in data set [2] was -43%; in data set [3], 32%. For the same compound, the “RABBIT Max. hyperemia” value in data set [4] stood at 0.25.

As for `CCCCCCc1ccc([C@@H]2[C@@H](C/C=C\CCCC(=O)OC(C)C)[C@H](Cl)C[C@H]2O)cc1` [compound 7], in data set [1], the “DOG Max. hpyeremia” value was 0.5. Further, the change in vivo at 1000 µg/mL in data set [2] was 20%; in data set [3], 21%.
